The structures appear in SMILES notation. Bounds are passed on as bounds.

The record followed here is patent publication US20080293696A1, “2-Aminoarylcarboxamides Useful as Cancer Chemotherapeutic Agents” (Bayer Pharmaceuticals Corporation, priority 2004, published 2008).

The subject of one test is PAKT/PKB (p-(S473) AKT) in H209 small cell lung carcinoma cells stimulated with Stem Cell Factor. The test can be described thus: PAKT/PKB Cytoblot Assay with H209 cells (SCF-stimulated p-(S473) AKT). Format: cell-based. As to conditions: Homo sapiens, NCI-H209, compound 1 hour, SCF 25 ng/mL 5 minutes, group: between 500 nM and 1 μM (units in value). The protocol: PAKT/PKB Cytoblot Assay Protocol with H209 Cells
H209 small cell lung carcinoma cells in log phase were plated at 50,000 cells/well in 96-well poly-lysine coated, clear bottom/black-sided plates (BD Cat # 354640) in 100 μl RPMI medium containing 0.1% (w/v) BSA, and incubated overnight at 37° C. in 5% CO2 incubator. The following day, compounds (10 mM stock solutions in DMSO) were added to the plates to generate final concentrations of 0.0, 0.01, 0.03, 0.1, 0.3, 1.0, 3.0 and 10 μM for IC50 determinations and incubated for 1 hour at 37° C. Cells were then left untreated or stimulated with Stem Cell Factor (SCF: Biosource Cat # PHC2116) at a final concentration of 25 ng/mL for 5 minutes at 37° C. in 5% CO2 incubator. The media was then removed using a vacuum manifold and the cells were washed once with Tris Buffered Saline (TBS).
Cells were then fixed by adding 200 μl of cold 3.7% (v/v) formaldehyde in TBS to each well for 15 minutes at 4° C. After removal of the formaldehyde, the cells were treated with the addition of 50 μl of methanol (at −20° C.) to each well for 5 minutes. After removal of the methanol, […] of 1% (w/v) BSA in TBS was added to each well to block non-specific antibody binding sites and the plate was incubated at room temperature for 30 minutes.
After removal of the blocking buffer, 50 μl of p-(S473) AKT rabbit polyclonal antibody (Cell Signaling Cat # 9277S) was added at a dilution of 1:250 in 0.1% (w/v) BSA in TBS, and the plate was incubated at room temperature for 1 hour. Plates were then washed 3 times with cold TBS containing 0.05% (v/v) Tween 20 (TBS-T) and […] of Horseradish peroxidase (HRP)-conjugated goat-anti-rabbit antibody (Amersham Cat # NA934V) at a dilution of 1:250 in TBS-T was added and the plate was incubated at room temperature for 1 h. After washing with ice-cold TBS-T four times, 100 μl of Enhanced Chemiluminescence (ECL) reagent (Amersham Cat# RPN2209) was added to each well and mixed on a mini-orbital shaker for 1 min. The plate was then read on a Perkin Elmer Victor 5 Multilabel Counter (#1420-0421).
Molecule `O=C(NCCc1ccc(O)cc1)c1cc(CNc2ccccc2C(=O)Nc2ccc3c(c2)OC(F)(F)O3)ccn1` [Example 129, 4-{[(2-{[(2,2-difluoro-1,3-benzodioxol-5-yl)amino]carbonyl}phenyl)amino]methyl}-N-[2-(4-hydroxyphenyl)ethyl]pyridine-2-carboxamide] came in with an IC50 of 500 to 1000 nM. Molecule `O=C(NCCc1cnc[nH]1)c1cc(CNc2ccccc2C(=O)Nc2ccc3c(c2)OC(F)(F)O3)ccn1` [Example 94, 4-{[(2-{[(2,2-difluoro-1,3-benzodioxol-5-yl)amino]carbonyl}phenyl)amino]methyl}-N-[2-(1H-imidazol-5-yl)ethyl]pyridine-2-carboxamide] gave an IC50 of 500 to 1000 nM. In turn, `N#Cc1cc(CNc2cc(F)ccc2C(=O)Nc2ccc3c(c2)OC(F)(F)C(F)(F)O3)ccn1` [Example 28, 2-{[(2-cyanopyridin-4-yl)methyl]amino}-4-fluoro-N-(2,2,3,3-tetrafluoro-2,3-dihydro-1,4-benzodioxin-6-yl)benzamide] registered an IC50 of 500 to 1000 nM. On the same count and under the same terms, the value for `COc1ccc(NC(=O)Nc2cc(CNc3ccccc3C(=O)Nc3ccc4c(c3)OC(F)(F)O4)ccn2)cc1` [Example 163, N-(2,2-difluoro-1,3-benzodioxol-5-yl)-2-({[2-({[(4-methoxyphenyl)amino]carbonyl}amino)pyridin-4-yl]methyl}amino)benzamide] was 500 to 1000 nM.

The same test, now with this note: Homo sapiens, NCI-H209, compound 1 hour, SCF 25 ng/mL 5 minutes, group: between 1 and 3 μM.
`Cc1cc(CNc2ccccc2C(=O)Nc2ccc3c(c2)OC(F)(F)C(F)(F)O3)nc(Cl)n1` [Example 26, 2-{[(2-chloro-6-methylpyrimidin-4-yl)methyl]amino}-N-(2,2,3,3-tetrafluoro-2,3-dihydro-1,4-benzodioxin-6-yl)benzamide] came in with a concentration for half-maximal inhibition (IC50) of 1000 to 3000 nM. `COc1ccc(NCc2ccncc2)c(C(=O)Nc2ccc3c(c2)OC(F)(F)C(F)(F)O3)c1` [Example 1, 5-methoxy-2-[(pyridin-4-ylmethyl)amino]-N-(2,2,3,3-tetrafluoro-2,3-dihydro-1,4-benzodioxin-6-yl)benzamide] gave an IC50 of 1000 to 3000 nM. On the same count and under the same terms, the value for `N#Cc1cccc(NC(=O)Nc2cc(CNc3ccccc3C(=O)Nc3ccc4c(c3)OC(F)(F)O4)ccn2)c1` [Example 166, 2-({[2-({[(3-cyanophenyl)amino]carbonyl}amino)pyridin-4-yl]methyl}amino)-N-(2,2-difluoro-1,3-benzodioxol-5-yl)benzamide] was 1000 to 3000 nM.

The test is the same for the next values; noted with them: Homo sapiens, NCI-H209, compound 1 hour, SCF 25 ng/mL 5 minutes, group: less than 500 nM.
Molecule `Cc1csc(Nc2cc(CNc3ccccc3C(=O)Nc3ccc4c(c3)OC(F)(F)O4)ccn2)n1` [Example 176, N-(2,2-difluoro-1,3-benzodioxol-5-yl)-2-[({2-[(4-methyl-1,3-thiazol-2-yl)amino]pyridin-4-yl}methyl)amino]benzamide] returned an IC50 below 500 nM. The same measure, in the same setting: the value for `O=C(Nc1ccc2c(c1)OC(F)(F)O2)c1ccccc1NCc1ccnc(NCCCN2CCOCC2)c1` [Example 144, N-(2,2-difluoro-1,3-benzodioxol-5-yl)-2-[({2-[(3-morpholin-4-ylpropyl)amino]pyridin-4-yl}methyl)amino]benzamidebis(trifluoroacetate)] was below 500 nM. On the same count and under the same terms, the value for `CNC(=O)c1cc(CNc2ccc(F)cc2C(=O)Nc2ccc3c(c2)OC(F)(F)O3)ccn1` [Example 31, 4-{[(2-{[(2,2-difluoro-1,3-benzodioxol-5-yl)amino]carbonyl}-4-fluorophenyl)amino]methyl}-N-methylpyridine-2-carboxamide] was below 500 nM. Same read-out and setting: the value for `CNC(=O)c1cc(CNc2cc(F)ccc2C(=O)Nc2ccc3c(c2)OC(F)(F)O3)ccn1` [Example 33, 4-{[(2-{[(2,2-difluoro-1,3-benzodioxol-5-yl)amino]carbonyl}-5-fluorophenyl)amino]methyl}-N-methylpyridine-2-carboxamide] was below 500 nM; that for `CC1CCCCN1CCCNC(=O)c1cc(CNc2ccccc2C(=O)Nc2ccc3c(c2)OC(F)(F)O3)ccn1` (stereo not shown) [Example 119, 4-{[(2-{[(2,2-difluoro-1,3-benzodioxol-5-yl)amino]carbonyl}phenyl)amino]methyl}-N-[3-(2-methylpiperidin-1-yl)propyl]pyridine-2-carboxamide] was below 500 nM; that for `CNc1nccc(CNc2ccccc2C(=O)Nc2ccc3c(c2)OC(F)(F)C(F)(F)O3)n1` [Example 51, 2-({[2-(methylamino)pyrimidin-4-yl]methyl}amino)-N-(2,2,3,3-tetrafluoro-2,3-dihydro-1,4-benzodioxin-6-yl)benzamide] was below 500 nM. In the case of `NC(=O)CCNC(=O)c1cc(CNc2ccccc2C(=O)Nc2ccc3c(c2)OC(F)(F)O3)ccn1` [Example 95, N-(3-amino-3-oxopropyl)-4-{[(2{[(2,2-difluoro-1,3-benzodioxol-5-yl)amino]carbonyl}phenyl)amino]methyl}pyridine-2-carboxamide], the 50% inhibitory concentration (IC50) is below 500 nM. For the molecule `O=C(Nc1ccc2c(c1)OC(F)(F)O2)c1ccccc1NCc1ccnc(NCCc2c[nH]cn2)c1` [Example 147, N-(2,2-difluoro-1,3-benzodioxol-5-yl)-2-{[(2-{[2-(1H-imidazol-4-yl)ethyl]amino}pyridin-4-yl)methyl]amino}benzamidebis(trifluoroacetate)], the IC50 was below 500 nM. On the same count and under the same terms, the value for `O=C(Nc1ccc2c(c1)OC(F)(F)C(F)(F)O2)c1cccnc1NCc1ccncc1` [Example 12, 2-[(pyridin-4-ylmethyl)amino]-N-(2,2,3,3-tetrafluoro-2,3-dihydro-1,4-benzodioxin-6-yl)nicotinamide] was below 500 nM. Still for that read-out and setting: the value for `CN1CCCC1CCNc1cc(CNc2ccccc2C(=O)Nc2ccc3c(c2)OC(F)(F)O3)ccn1` (stereo not shown) [Example 145, N-(2,2-difluoro-1,3-benzodioxol-5-yl)-2-{[(2-{[2-(1-methylpyrrolidin-2-yl)ethyl]amino}pyridin-4-yl)methyl]amino}benzamidebis(trifluoroacetate)] was below 500 nM; that for `CCCCNC(=O)Nc1cc(CNc2ccccc2C(=O)Nc2ccc3c(c2)OC(F)(F)O3)ccn1` [Example 170, 2-{[(2-{[(butylamino)carbonyl]amino}pyridin-4-yl)methyl]amino}-N-(2,2-difluoro-1,3-benzodioxol-5-yl)benzamide] was below 500 nM; that for `N#Cc1cc(CNc2ccc(F)cc2C(=O)Nc2ccc3c(c2)OC(F)(F)O3)ccn1` [Example 30, 2-{[(2-cyanopyridin-4-yl)methyl]amino}-N-(2,2-difluoro-1,3-benzodioxol-5-yl)-5-fluorobenzamide] was below 500 nM. On the same count and under the same terms, the value for `O=C(Nc1ccc2c(c1)OC(F)(F)O2)c1ccc(F)cc1NCc1ccncc1` [Example 21, N-(2,2-difluoro-1,3-benzodioxol-5-yl)-4-fluoro-2-[(pyridin-4-ylmethyl)amino]benzamide] was below 500 nM. On to `CNC(=O)c1cc(CNc2cc(F)c(F)cc2C(=O)Nc2ccc3c(c2)OC(F)(F)C(F)(F)O3)ccn1` [Example 37, 4-{[(4,5-difluoro-2-{[(2,2,3,3-tetrafluoro-2,3-dihydro-1,4-benzodioxin-6-yl)amino]carbonyl}phenyl)amino]methyl}-N-methylpyridine-2-carboxamide], for which the IC50 was below 500 nM.

The molecule `CCOC(=O)CCC(=O)N(C(=O)CCC(=O)OCC)c1cc(CNc2ccccc2C(=O)Nc2ccc3c(c2)OC(F)(F)O3)ccn1` [Example 158, diethyl 4,4′-[(4-{[(2-{[(2,2-difluoro-1,3-benzodioxol-5-yl)amino]carbonyl}phenyl)amino]methyl}pyridin-2-yl)imino]bis(4-oxobutanoate)] registered an IC50 below 500 nM. Turning to `O=C(Nc1ccc2c(c1)OC(F)(F)O2)c1ccccc1NCc1ccncc1` [Example 5, N-(2,2-difluoro-1,3-benzodioxol-5-yl)-2-[(pyridin-4-ylmethyl)amino]benzamide], the IC50 is below 500 nM. On the same count and under the same terms, the value for `O=C(NCCCN1CCCCCC1)c1cc(CNc2ccccc2C(=O)Nc2ccc3c(c2)OC(F)(F)O3)ccn1` [Example 113, N-(3-azepan-1-ylpropyl)-4-{[(2-{[(2,2-difluoro-1,3-benzodioxol-5-yl)amino]carbonyl}phenyl)amino]methyl}pyridine-2-carboxamide] was below 500 nM; that for `CCNC(=O)c1cc(CNc2ccccc2C(=O)Nc2ccc3c(c2)OC(F)(F)C(F)(F)O3)ccn1` [Example 44, N-ethyl-4-{[(2-{[(2,2,3,3-tetrafluoro-2,3-dihydro-1,4-benzodioxin-6-yl)amino]carbonyl}phenyl)amino]methyl}pyridine-2-carboxamide] was below 500 nM.

A word on the IC50: it is the concentration that gives 50% inhibition. Low readings indicate higher potency, high ones lower potency.
